What was measured:
[1] = system: HCT-116; assay: Potency index, ratio of etoposide IC50 to test compound IC50 for antiproliferative activity against human HCT116 cells; assay type: functional
[2] = system: HCT-116; assay: Antiproliferative activity against human HCT116 cells incubated for 3 days by MTT assay; assay type: functional, cell-based; settings: HCT-116, 72 h
[3] = system: A549; assay: Antiproliferative activity against human A549 cells incubated for 3 days by MTT assay; assay type: functional, cell-based; settings: A549, 72 h
[4] = system: A549; assay: Potency index, ratio of etoposide IC50 to test compound IC50 for antiproliferative activity against human A549 cells; assay type: functional
[5] = system: HepG2; assay: Antiproliferative activity against human HepG2 cells incubated for 3 days by MTT assay; assay type: functional, cell-based; settings: HepG2, 72 h
[6] = system: HepG2; assay: Potency index, ratio of etoposide IC50 to test compound IC50 for antiproliferative activity against human HepG2 cells; assay type: functional
[7] = system: MCF7; assay: Antiproliferative activity against human MCF7 cells incubated for 48 hrs by MTT assay; assay type: functional, cell-based; settings: MCF7, 48 h
[8] = system: HL-60; assay: Antiproliferative activity against human HL-60 cells incubated for 48 hrs by MTT assay; assay type: functional, cell-based; settings: HL-60, 48 h
[9] = system: SW480; assay: Antiproliferative activity against human SW480 cells incubated for 48 hrs by MTT assay; assay type: functional, cell-based; settings: SW480, 48 h
[10] = Selectivity index, ratio of CC50 for human BEAS2B cells to IC50 for human SMMC7721 cells; assay type: toxicity; settings: read-out: Ratio CC50/IC50
[11] = Selectivity index, ratio of CC50 for human BEAS2B cells to IC50 for human SW480 cells; assay type: toxicity; settings: read-out: Ratio CC50/IC50
[12] = system: A549; assay: Antiproliferative activity against human A549 cells incubated for 48 hrs by MTT assay; assay type: functional, cell-based; settings: A549, 48 h
[13] = Selectivity index, ratio of CC50 for human BEAS2B cells to IC50 for human A549 cells; assay type: toxicity; settings: read-out: Ratio CC50/IC50
[14] = Selectivity index, ratio of CC50 for human BEAS2B cells to IC50 for human MCF7 cells; assay type: toxicity; settings: read-out: Ratio CC50/IC50
[15] = Cytotoxicity against human BEAS2B cells; assay type: cell-based; settings: BEAS-2B cells
[16] = Selectivity index, ratio of CC50 for human BEAS2B cells to IC50 for human HL60 cells; assay type: toxicity; settings: read-out: Ratio CC50/IC50
[17] = system: SMMC-7721; assay: Antiproliferative activity against human SMMC-7721 cells incubated for 48 hrs by MTT assay; assay type: functional, cell-based; settings: SMMC-7721, 48 h

Row | Compound | Ratio IC50 [1] | IC50 [2] [nM] | IC50 [3] [nM] | Ratio IC50 [4] | IC50 [5] [nM] | Ratio IC50 [6] | IC50 [7] [nM] | IC50 [8] [nM] | IC50 [9] [nM] | selectivity ratio [10] | selectivity ratio [11] | IC50 [12] [nM] | selectivity ratio [13] | selectivity ratio [14] | CC50 [15] [nM] | selectivity ratio [16] | IC50 [17] [nM]
1 | COc1cc([C@@H]2c3cc4c(cc3[C@@H](NC(=S)NC(=O)c3ccccc3)[C@H]3COC(=O)[C@H]23)OCO4)cc(OC)c1OC | 49 | 100 | 100 | 49 | 100 | 49 | – | – | – | – | – | – | – | – | – | – | –
2 | CCCC(=O)OC[C@H]1O[C@@H](OC(COCc2cn([C@@H]3c4cc5c(cc4[C@@H](c4cc(OC)c(OC)c(OC)c4)[C@H]4C(=O)OC[C@@H]43)OCO5)nn2)COCc2cn([C@@H]3c4cc5c(cc4[C@@H](c4cc(OC)c(OC)c(OC)c4)[C@H]4C(=O)OC[C@@H]43)OCO5)nn2)[C@H](OC(=O)CCC)[C@@H](OC(=O)CCC)[C@@H]1OC(=O)CCC (some centres not stated) | – | – | – | – | – | – | 430 | 430 | 430 | 4.3 | 4.3 | 430 | 4.3 | 4.3 | 15400 | 4.3 | 430

From ChEMBL document CHEMBL4818987, “Recent advances of podophyllotoxin/epipodophyllotoxin hybrids in anticancer activity, mode of action, and structure-activity relationship: An update (2010-2020)” (Eur J Med Chem, 2020)
